Tests used:
[1] = tested on: cytokinin-dependent tobacco callus; experiment: Growth of cytokinin-dependent tobacco callus (plant cell division); type: cell-based, Nicotiana tabacum L. cv. Wisconsin 38; details: at concentration with highest activity; activity of kinetin set at 100%
Description: The effect on plant cell division. Cytokinin-dependent tobacco callus Nicotiana tabacum L. cv. Wisconsin 38 was maintained at 25° C. in darkness on modified MS medium, containing 4 μmol/l nicotinic acid, 2.4 μmol/l pyridoxine hydrochloride, 1.2 μmol/l thiamine, 26.6 μmol/l glycine, 1.37 μmol/l glutamine, 1.8 μmol/1 myo-inositol, 30 g/l of sucrose, 8 g/l of agar, 5.37 μmol/l NAA and 0.5 μmol/l BAP. Subcultivation was carried out every three weeks. Fourteen days before the bioassay, the callus tissue was transferred to the media without BAP. Biological activity was determined from the increase in fresh callus weight after four weeks of cultivation. Five replicates were prepared for each cytokinin concentration and the entire test was repeated twice. From the obtained data, the concentration with highest activity was selected for each compound tested. Relative activity at this concentration was calculated (see Table 4 below).
The cytokinins to be tested were dissolved in dimethylsulfoxide (DMSO) and the solution brought up to 10^−3M with distilled water.

[2] = tested on: human skin fibroblast line ASF-2; experiment: Cell survival and toxicity (MTT assay); type: cell-based
Description: (§1) All cell culture experiments were performed on early and mid passage cultures (about 20 to 40% lifespan completed) of normal human skin fibroblast line, designated ASF-2. In order to check the effects of test compounds on senescent cells, late passage cells with more than 90% lifespan completed were used. ASF-2 cell line was established from a mammary skin biopsy obtained from a young, non-smoking and healthy […] at the time of breast reduction operation. Normal culture conditions of medium (DMEM) containing antibiotics, 10% foetal calf serum, and incubation at 37° C. with 95% humidity were used. The effects of the test compounds were determined using the following procedures.
Cell survival, toxicity, and JC-1 staining. Cell survival after exposure to various doses of the test compounds was measured with the 3-(4,5 dimethylthiazol-2-yl)-2,5-diphenyltetrazolium bromide (MTT) assay. About 5,000 cells were seeded per well in a 96-well plate 24 h before the experiment. Cells were then treated with various doses of the compound to be tested. The wells were washed in Hank's and new medium was added. After three days, MTT (Sigma, M2128) was added at 0.5 mg/ml in medium. After 4 h, MTT was collected and then dissolved in isopropanol and HCl over a 12-16 h period. The absorbance at 595 nm was measured.

[3] = tested on: mitochondria of ASF-2 cells; experiment: JC-1 staining of mitochondria; type: cell-based, human; details: 3 days pre-treatment of dermal fibroblasts
Description: as §1
Briefly, stock solution of JC-1 (Sigma, M2128) was made at 1 mg/ml in dimethyl sulfoxide. Fresh staining solution […] was prepared by diluting the stock solution in warm (37° C.) culture medium supplemented with 10% calf serum (final conc. 1 μg/ml). Around 3000 cells/ml were seeded in 4 chambered flasks. After three days of incubation, medium is aspirated and one ml of JC-1 staining medium is added, after incubation for 10 mins a cover slip is quickly added and viewed under fluorescent microscope at excitation wavelengths of 488 and 647 nm. […] On depolarization, the orange red punctate staining is replaced by diffuse green monomer fluorescence.

[4] = tested on: Salmonella typhimurium histidien auxotrophs TA98 and TA100; experiment: Ames test; type: cell-based; details: 2.5-5000 μg/plate, presence and absence of Aroclor-induced rat liver S9
Description: Ames Test. A number of tests related to the safety of these inventive compounds have been carried out using conventionally accepted protocols and procedures. Tests were carried out using DMSO as solvent and dose levels of 8-amino-6-furfurylaminopurine at 2.5, 5.0, 15, 50, 500, 1500, and 5000 μg/plate based upon standard protocol and procedures (Ames et al., Mutation Research, 31, 347-364 (1975); Maron et al., Mutation Research, 113, 173-215 (1983)).

SKH-1 hairless mice [5] = experiment: Hairless mouse assay: epidermal bromodeoxyuridine (BrdU) staining; type: in vivo
Excerpt: This study determined the effect of topical compound formulations on epidermal cell proliferation using bromodeoxyuridine as an immunohistochemical marker of cell proliferation. Histological examination of the treated and control skin were used to determine cutaneous effects of the topical compounds. Topical tretinoin 0.05% (Renova™) was used as a therapeutic control.
(§2) Experimental Design. 48 female SKH-1 hairless mice (5 weeks old, 20-25 grams, Charles River Laboratories, Wilmington, Mass.) are individually housed in filter-top cages, and acclimated for 5-7 days after delivery. The mice are divided into 8 treatment groups (n=6), including two different control groups (untreated control, vehicle control) and a therapeutic control (tretinoin 0.05% Renova™ cream). Cage cards are marked to indicate treatment groups 1-8. Water and mouse chow are provided ad libitum.
(§3) Topical Treatments. Beginning on Treatment Day 1, test products are applied topically each morning (Monday through Friday) after erythema evaluations for 3 weeks. Using a positive displacement pipette, 20 mg of each agent is applied to a 2 cm×2 cm area of the center midline of the back. The material was spread across the treatment area with the pipette tip.
Bromodeoxyuridine Injection. All animal groups are injected with bromodeoxyuridine (100 mg/kg) I.P. 4 hours after the final application. Animals are sacrificed by CO2 inhalation 3 hours later followed by cervical dislocation. The test sites are excised, and 6 mm punch biopsies are obtained from each treatment site, and from untreated controls. Biopsies are placed into labeled vials containing 4% neutral buffered formalin for paraffin embedding and anti-BrdU staining.
Bromodeoxyuridine Immunohistochemical Staining. Paraffin sections are cut to a […] thickness and stained using the BrdU Immuno-histochemistry kit (X1545K from Exalpha Biologicals, Inc.) and a standard staining protocol. The slides are weakly counterstained in Mayer's hematoxylin and scored under a light microscope for the number of BrdU-positive cells per mm of epidermis for each section. The data are expressed as mean BrdU-positive cells/mm for each treatment group. Differences in BrdU labeling in the treatment groups are statistically analyzed using the Students t-test. Representative photographs are taken of the histological sections of the BrdU-positive staining cells.

SKH-1 hairless mice [6] = experiment: Hairless mouse assay: skin histology and skin compartment measurements; type: in vivo; details: H&E stained biopsies, after 3 weeks of treatment
Excerpt: as §2, §3
Skin Histology. Skin biopsies are taken of each treatment site and untreated control skin. Biopsies are fixed in 4% neutral buffered formalin, embedded in paraffin, and stained with hematoxylin and eosin. The stained skin sections are examined to determine the effects of the treatment on epidermal, dermal, and stratum corneum histology. Biopsies are also microscopically examined for inflammatory cells.
Skin Compartment Measurements. The H&E stained biopsy slides were imaged using a trinocular Olympus BH-2 microscope fitted with a Microfire 2.1×3 Digital Camera. 100× images were digitized and stored on CD using MS Pictureframe and Microfire Software. All compartment images were measured using a calibrated micrometer. An average of three measurements of each compartment for two slide images per biopsy was obtained and tabulated, and means and standard deviations were calculated.

Nc1nc2c(NCc3ccco3)ncnc2[nH]1 [Compound 82, 6-furfurylamino-8-aminopurine]
Activity (%) [1]: 150.10% | reduction in survival ([2]; 100 μM, MTT): 15% | cell survival ([2]; 500 μM, MTT): reduction in cell survival | toxic effects (MTT) ([2]; young fibroblasts, until a dose of 100 μM): little toxic effects | JC-1 staining [3]: punctate orange-red fluorescent staining | mutagenic responses [4]: no positive mutagenic responses | epidermal BrdU staining (SKH-1 hairless mice [5]; after 3 weeks of topical treatment): more effective | Mean Nuclei Stained (SKH-1 hairless mice [5]; epidermal BrdU staining after 3 weeks of topical treatment, 0.1% (tretinoin 0.05%)): 12.8 ± 13.3 | skin compartment thickness (SKH-1 hairless mice [6]): least effect on skin thickness

Source: US20130072506A1, “6,8-DISUBSTITUTED PURINE COMPOSITIONS” (priority 2011, published 2013)
